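Exposure lasted 48 hours, with cells grown in 96-well plates and compounds tested at five concentrations. Here, GI50 denotes the concentration required for 50% inhibition of growth. TGI denotes the concentration required for complete inhibition of growth.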
Columns and labels:
Assay in all cases: inhibition of tumour cell growth, NCI panel, 48 h
CAKI-1 renal = system: CAKI-1 renal
HL-60(TB) leukemia = system: HL-60(TB) leukemia
IGROV1 ovarian = system: IGROV1 ovarian
MOLT-4 leukemia = system: MOLT-4 leukemia
NCI-H226 lung = system: NCI-H226 lung
OVCAR-4 ovarian = system: OVCAR-4 ovarian
RXF 393 renal = system: RXF 393 renal
SK-MEL-2 melanoma = system: SK-MEL-2 melanoma
SK-MEL-28 melanoma = system: SK-MEL-28 melanoma
SN12C renal = system: SN12C renal
UACC-62 melanoma = system: UACC-62 melanoma

| Compound | GI50 (CAKI-1 renal) | TGI (CAKI-1 renal) | GI50 (HL-60(TB) leukemia) | TGI (HL-60(TB) leukemia) | GI50 (IGROV1 ovarian) | TGI (IGROV1 ovarian) | GI50 (MOLT-4 leukemia) | TGI (MOLT-4 leukemia) | GI50 (NCI-H226 lung) | TGI (NCI-H226 lung) | GI50 (OVCAR-4 ovarian) | TGI (OVCAR-4 ovarian) | GI50 (RXF 393 renal) | TGI (RXF 393 renal) | GI50 (SK-MEL-2 melanoma) | TGI (SK-MEL-2 melanoma) | GI50 (SK-MEL-28 melanoma) | TGI (SK-MEL-28 melanoma) | TGI (SN12C renal) | TGI (UACC-62 melanoma) |
| --- | --- | --- | --- | --- | --- | --- | --- | --- | --- | --- | --- | --- | --- | --- | --- | --- | --- | --- | --- | --- |
| COc1ccccc1C1C(C#N)=C(N)OC2=C1C(=O)CCC2 (configuration not stated) | > 100 µM | > 100 µM | > 100 µM | > 100 µM | > 100 µM | > 100 µM | > 100 µM | > 100 µM | 74.2 µM | > 100 µM | > 100 µM | > 100 µM | > 100 µM | > 100 µM | > 100 µM | > 100 µM | > 100 µM | > 100 µM | – | – |
| CCCCc1ccc2[n+](c1)C(C(=O)OCC)=PC2 (configuration not stated) | – | > 100 µM | – | > 100 µM | – | > 100 µM | – | > 100 µM | – | – | – | > 100 µM | – | > 100 µM | – | – | – | > 100 µM | > 100 µM | > 100 µM |
| O=C1c2ccccc2-c2ccc(NC(=O)C3CCCCC3C(=O)O)cc21 (configuration not stated) | – | > 100 µM | – | > 100 µM | – | > 100 µM | – | > 100 µM | – | > 100 µM | – | > 100 µM | – | > 100 µM | – | > 100 µM | – | > 100 µM | > 100 µM | > 100 µM |
| COc1ccc(C(=O)Cc2cc(OC)ccc2OC)cc1 | – | > 100 µM | – | > 100 µM | – | > 100 µM | – | > 100 µM | – | > 100 µM | – | > 100 µM | – | > 100 µM | – | > 100 µM | – | – | > 100 µM | > 100 µM |
| Cc1cc(NS(=O)(=O)c2ccc(Nc3c4ccccc4nc4c(C(=O)NCCN(C)C)ccc(Cl)c34)cc2)no1 | – | – | – | 5.58 µM | – | 20.7 µM | – | 1.74 µM | – | 4.57 µM | – | 17.6 µM | – | 22.8 µM | – | 19.7 µM | – | 16.1 µM | 16.8 µM | 10.4 µM |
| CC(C)=CCN(N=O)c1ncnc2nc[nH]c12 | – | > 100 µM | – | > 100 µM | – | > 100 µM | – | > 100 µM | – | > 100 µM | – | > 100 µM | – | > 100 µM | – | – | – | > 100 µM | > 100 µM | – |
| CCOC(=O)C1C(c2cc(OC)c(O)c(OC)c2)c2cc3c(cc2OC1(C)O)OCO3 (configuration not stated) | – | 95.2 µM | – | > 100 µM | – | > 100 µM | – | > 100 µM | – | – | – | > 100 µM | – | – | – | > 100 µM | – | > 100 µM | > 100 µM | > 100 µM |
| Cc1ccc2c(c1)c(=O)c1c(NCCN(C)C)ccc3nnn2c31 | – | 12.3 µM | – | 8.58 µM | – | 23 µM | – | 5.06 µM | – | 10.3 µM | – | 12.9 µM | – | 16.9 µM | – | 21.1 µM | – | 18 µM | > 42 µM | 20.5 µM |
